Measurements taken from patent US20260285853A1, “COMPOUNDS AND METHODS FOR MODULATING SPLICING” (REMIX THERAPEUTICS INC., priority 2023, published 2026).
pIC50: −log10 of the molar value. Read-outs that look alike come from different tables or passages of the source.

Tests used:
Format in all cases: cell-based
HTT mRNA [1] = assay: Splicing RT-qPCR assay (THP), Table 2A
MYB mRNA [2] = assay: Splicing RT-qPCR assay (THP), Table 2A
HTT mRNA [3] = assay: Gene panel canonical junction qPCR assay, decrease in CJ mRNA, Table 3
Protocol: (§1) Compounds described herein were used to modulate RNA transcript abundance in cells. The expression of a target mRNA was measured by detecting the formation of an exon-exon junction in the canonical transcript (CJ). A compound mediated exon-inclusion event was detected by observing an increase in formation of a new junction with an alternative exon (AJ). Real-time qPCR assays were used to detect these splicing switches and interrogate the potency of various compounds towards different target genes. A high-throughput real time quantitative PCR (RT-qPCR) assay was developed to measure these two isoforms of the mRNA (CJ and AJ) for exemplary genes, such as HTT, SMN2, and MYB, together with a control housekeeping gene, GAPDH or GUSB or PPIA, used for normalization. Briefly, the A673 or K562 cell line was treated with various compounds described herein (e.g., compounds of Formula (I)). After treatment, the levels of the HTT, MYB, or SMN2 mRNA targets were determined from each sample of cell lysate by cDNA synthesis followed by qPCR.
(§2) The A673 cell line was cultured in DMEM with 10% FBS. Cells were diluted with full growth media and plated in a 96-well plate (15,000 cells in 100 ul media per well). The plate was incubated at 37° C. with 5% CO2 for 24 hours to allow cells to adhere. An 11-point 3-fold serial dilution of the compounds was made in DMSO then diluted in media in an intermediate plate. Compounds were transferred from the intermediate plate to the cell plate with the top dose at a final concentration of 10 uM in the well. Final DMSO concentration was kept at or below 0.25%. The cell plate was returned to the incubator at 37° C. with 5% CO2 for an additional 24 hours.
(§3) The K562 cell line was cultured in IMDM with 10% FBS. For K562, cells were diluted with full growth media and plated in either a 96-well plate (50,000 cells in 50 uL media per well) or a 384-well plate (8,000-40,000 cells in 45 uL media per well). An 11-point 3-fold serial dilution of the compounds were made in DMSO then diluted in media in an intermediate plate. Compound was transferred from the intermediate plate to the cell plate with the top dose at a final concentration of 10 uM in the well. Final DMSO concentration was kept at or below 0.25%. Final volume was 100 uL for 96-well plate and 50 uL for 384-well plate. The cell plate was then placed in an incubator at 37° C. with 5% CO2 for 24 hours.
(§4) The data analysis was performed by first determining the ΔCt vs the housekeeper gene. This ΔCt was then normalized against the DMSO control (ΔΔCt) and converted to RQ (relative quantification) using the 2^(−ΔΔCt) equation. The RQ were then converted to a percentage response by arbitrarily setting an assay window of 3.5 and 4.0 ΔCt for HTT-CJ and MYB-CJ respectively and an assay window of 9 and 3 ΔCt for HTT-AJ and MYB-AJ in 96 well format (50,000 K562 cells/well and 15,000 A673 cells per well) and an assay window of 3 and 4 ΔCt for HTT-CJ and MYB-CJ respectively and an assay window of 5 and 3 ΔCt for HTT-AJ and MYB-AJ respectively in 384 well format (8,000 K562 cells/well example). […] The percentage response was then fitted to the 4 parametric logistic equation to evaluate the concentration dependence of compound treatment. The increase in AJ mRNA is reported as AC50 (compound concentration having 50% response in AJ increase) while the decrease in CJ mRNA levels is reported as IC50 (compound concentration having 50% response in CJ decrease).
(§5) Additional studies were carried out for a larger panel of genes using the protocol provided above. The junction between flanking upstream and downstream exons was used to design canonical junction qPCR assays. At least one of the forward primer, reverse primer or the CY5-labeled 5′ nuclease probe (with 3′ quencher such as ZEN/Iowa Black FQ) was designed to overlap with the exon junction to capture the CJ mRNA transcript. […]

MYB mRNA [4] = assay: as above
Protocol: as §1, §2, §3, §4, §5

[5] = test system: SH-SY5Y (human neuroblastoma) cells; assay: Cell viability, Cell Titer Glo 2.0 assay; conditions: read-out: Viability SHSY5Y.3 GI50
Protocol: Compounds described herein were screened for toxicity in K562 (human chronic myelogenous leukemia) and SH-SY5Y (human neuroblastoma) cells using a Cell Titer Glo 2.0 assay.
• Promega CellTiter-Glo® 2.0 Cell Viability Assay (cat #G9241) • Corning 384-well TC-treated microplates (cat #3570)
Cells were plated at 500 cells/well (K562 cells) in 45 μL of IMDM supplemented with 10% FBS in a 384-well opaque plate. Wells containing only medium were used as a blank control. Test compounds (e.g., compounds of Formula (I) or (II) were first serially diluted in DMSO then diluted 1:100 with IMDM+10% FBS. The final concentration of DMSO was 0.1% in each well. The cells were incubated for 72 hours at 37° C. and 5% CO2 before assaying with Cell Titer Glo 2.0 reagent.

[6] = Table 2A (THP), AJ mRNA increase, read-out: HTT AJ (increase in alternative junction mRNA, AC50)
[7] = Table 2A (THP), CJ mRNA decrease, read-out: HTT CJ (decrease in canonical junction mRNA, IC50)
[8] = Table 2A (THP), AJ mRNA increase, read-out: MYB AJ (increase in alternative junction mRNA, AC50)
[9] = Table 2A (THP), CJ mRNA decrease, read-out: MYB CJ (decrease in canonical junction mRNA, IC50)
[10] = decrease in canonical junction (CJ) mRNA, gene panel qPCR, Table 3
[11] = Table 2A, THP, HTT alternative junction (AJ) mRNA, read-out: HTT AJ (AC50, increase in alternative junction mRNA)
[12] = Table 2A, THP, HTT canonical junction (CJ) mRNA, read-out: HTT CJ (IC50, decrease in canonical junction mRNA)
[13] = Table 2A, THP, MYB alternative junction (AJ) mRNA, read-out: MYB AJ (AC50, increase in alternative junction mRNA)
[14] = Table 2A, THP, MYB canonical junction (CJ) mRNA, read-out: MYB CJ (IC50, decrease in canonical junction mRNA)
[15] = decrease in CJ mRNA levels, canonical junction qPCR, gene panel

| Structure (SMILES) | pIC50 (HTT mRNA [1]; [7]) | pIC50 (MYB mRNA [2]; [9]) | pIC50 (HTT mRNA [3]; [10]) | pIC50 (MYB mRNA [4]; [10]) | GI50 [5] [µM] | pIC50 (HTT mRNA [1]; [12]) | pIC50 (MYB mRNA [2]; [14]) | pIC50 (HTT mRNA [3]; [15]) | pIC50 (MYB mRNA [4]; [15]) | AC50 (HTT mRNA [1]; [6]) [µM] | AC50 (MYB mRNA [2]; [8]) [µM] | AC50 (HTT mRNA [1]; [11]) [µM] | AC50 (MYB mRNA [2]; [13]) [µM] |
| --- | --- | --- | --- | --- | --- | --- | --- | --- | --- | --- | --- | --- | --- |
| CCNC1CCN(c2ccc(C(=O)Nc3cc(C(=O)O)c4nc(C)cn4c3)c3nn(C)cc23)CC1 [Compound 318, 6-[[4-[4-(ethylamino)-1-piperidyl]-2-methyl-indazole-7-carbonyl]amino]-2-methyl-imidazo[1,2-a]pyridine-8-carboxylic acid 2,2,2-trifluoroacetic acid] | < 5.00 | < 5.00 | < 5.00 | < 5.00 | > 10 | – | – | – | – | > 10 | > 10 | – | – |
| CCNC1CCN(c2ccc(C(=O)Nc3cc(Oc4ccccn4)c4nc(C)cn4c3)c3nn(C)cc23)CC1 [Compound 365, 4-[4-(ethylamino)-1-piperidyl]-2-methyl-N-[2-methyl-8-(2-pyridyloxy)-imidazo[1,2-a]pyridin-6-yl]indazole-7-carboxamide] | < 5.00 | 5.00 to 6.00 | < 5.00 | 5.00 to 6.00 | > 10 | – | – | – | – | > 10 | 1 to 10 | – | – |
| Cn1cc2cc(NC(=O)c3ccc(N4CCC(NC5CC5)CC4)c4cn(C)nc34)c(F)cc2n1 [Compound 459, 4-[4-(cyclopropylamino)-1-piperidyl]-N-(6-fluoro-2-methyl-indazol-5-yl)-2-methyl-indazole-7-carboxamide] | 5.00 to 6.00 | 6.00 to 7.00 | 5.00 to 6.00 | 6.00 to 7.00 | 1 to 10 | – | – | – | – | > 10 | 0.1 to 1 | – | – |
| CCNC1CCN(c2ccc(C(=O)Nc3cc(CS(=O)(=O)N(C)C)c4nn(C)cc4c3)c3nn(C)cc23)CC1 [Compound 874] | – | – | – | – | > 10 | < 5.00 | < 5.00 | < 5.00 | < 5.00 | – | – | > 10 | > 10 |
| Cc1cc2cc(NC(=O)c3c(F)cc(N4CCC(NC5CC5)CC4)c4cn(C)nc34)sc2c(C)n1 [Compound 484, 4-[4-(cyclopropyl-amino)-1-piperidyl]-N-(5,7-dimethyl-thieno[2,3-c]pyridin-2-yl)-6-fluoro-2-methyl-indazole-7-carboxamide] | < 5.00 | < 5.00 | < 5.00 | < 5.00 | 1 to 10 | – | – | – | – | > 10 | > 10 | – | – |

Now from value to compound, other results behind:

| pIC50 (HTT mRNA [1]; [7]) | pIC50 (MYB mRNA [2]; [9]) | pIC50 (HTT mRNA [3]; [10]) | pIC50 (MYB mRNA [4]; [10]) | GI50 [5] [µM] | pIC50 (HTT mRNA [1]; [12]) | pIC50 (MYB mRNA [2]; [14]) | pIC50 (HTT mRNA [3]; [15]) | pIC50 (MYB mRNA [4]; [15]) | Structure (SMILES) | AC50 (HTT mRNA [1]; [6]) [µM] | AC50 (MYB mRNA [2]; [8]) [µM] | AC50 (HTT mRNA [1]; [11]) [µM] | AC50 (MYB mRNA [2]; [13]) [µM] |
| --- | --- | --- | --- | --- | --- | --- | --- | --- | --- | --- | --- | --- | --- |
| < 5.00 | < 5.00 | < 5.00 | < 5.00 | 1 to 10 | – | – | – | – | Cn1cc2c(N3CCC(NC4CC4)CC3)cc(F)c(C(=O)Nc3ccc4c(c3)COB4O)c2n1 [Compound 481, 4-(4-(cyclopropyl-amino)piperidin-1-yl)-6-fluoro-N-(1-hydroxy-1,3-dihydrobenzo[c][1,2]-oxaborol-5-y1)-2-methyl-2H-indazole-7-carboxamide 2,2,2-trifluoroacetate] | > 10 | 1 to 10 | – | – |
| 5.00 to 6.00 | 5.00 to 6.00 | 5.00 to 6.00 | 5.00 to 6.00 | 1 to 10 | – | – | – | – | COc1cc2nn(C)cc2cc1NC(=O)c1ccc(N2CC3(CCNCC3)C2)c2cn(C)nc12 [Compound 507] | 1 to 10 | 0.1 to 1 | – | – |
| < 5.00 | < 5.00 | < 5.00 | < 5.00 | 1 to 10 | – | – | – | – | COc1cc2nn(C)cc2cc1NC(=O)c1c(N)cc(N2CCC(NC3CC3)CC2)c2cn(C)nc12 [Compound 450, 6-amino-4-[4-(cyclopropylamino)-1-piperidyl]-N-(6-methoxy-2-methyl-indazol-5-yl)-2-methyl-indazole-7-carboxamide] | > 10 | > 10 | – | – |
| 5.00 to 6.00 | 6.00 to 7.00 | 5.00 to 6.00 | 6.00 to 7.00 | 1 to 10 | – | – | – | – | COc1cc2nn(C)cc2cc1NC(=O)c1ccc(N2CCC(NCC3CC3)CC2)c2cn(C)nc12 [Compound 577] | 1 to 10 | < 0.1 | – | – |
| – | – | – | – | 0.1 to 1 | > 7.00 | > 7.00 | > 7.00 | > 7.00 | COc1nc2c(C(=O)Nc3cc(F)c4nn(C)cc4c3)ccc(N3CCC4(CCCN4)CC3)c2s1 [Compound 768] | – | – | < 0.1 | < 0.1 |
| < 5.00 | 6.00 to 7.00 | < 5.00 | 6.00 to 7.00 | 1 to 10 | – | – | – | – | CCNC1CCN(c2cc(O)c(C(=O)Nc3cn4cc(C)nc(C)c4n3)c3nn(C)cc23)CC1 [Compound 332, N-(6,8-dimethylimidazo[1,2-a]pyrazin-2-yl)-4-(4-(ethylamino)piperidin-1-yl)-6-hydroxy-2-methyl-2H-indazole-7-carboxamide 2,2,2-trifluoroacetate] | > 10 | 0.1 to 1 | – | – |
| < 5.00 | 5.00 to 6.00 | < 5.00 | 5.00 to 6.00 | > 10 | – | – | – | – | CCNC1CCN(c2cc(F)c(C(=O)Nc3cn4cc(CO)nc(C)c4n3)c3nn(C)cc23)CC1 [Compound 379, 4-[4-(ethylamino)-1-piperidyl]-6-fluoro-N-[6-(hydroxymethyl)-8-methyl-imidazo[1,2-a]pyrazin-2-yl]-2-methyl-indazole-7-carboxamide] | > 10 | 1 to 10 | – | – |
| – | – | – | – | 1 to 10 | < 5.00 | < 5.00 | < 5.00 | < 5.00 | Cc1cn2cc(NC(=O)c3ccc(N4CCC(NC5CC5)CC4)c4cn(C)nc34)nc2c(CC2CCOC2)n1 (stereo not shown) [Compound 722, 4-[4-(cyclopropylamino)-1-piperidyl]-2-methyl-N-[6-methyl-8-(tetrahydrofuran-3-ylmethyl)imidazo[1,2-a]pyrazin-2-yl]indazole-7-carboxamide 2,2,2-trifluoroacetate] | – | – | > 10 | > 10 |
